This passage reports IC50 and inhibition results from patent publication US10519134B2, “Pyrazole compounds and methods of making and using same” (Lundbeck La Jolla Research Center, Inc., priority 2015, dated 2019).

For test [1], the target named is T1, MAGL (Mus musculus, UniProt O35678).
T1 construct: Proteomes (mouse brain membrane fraction or cell lysates); from tissue; host or cells: mouse brain membrane fraction (or cell lysates)
T1 sequence (O35678 1-303): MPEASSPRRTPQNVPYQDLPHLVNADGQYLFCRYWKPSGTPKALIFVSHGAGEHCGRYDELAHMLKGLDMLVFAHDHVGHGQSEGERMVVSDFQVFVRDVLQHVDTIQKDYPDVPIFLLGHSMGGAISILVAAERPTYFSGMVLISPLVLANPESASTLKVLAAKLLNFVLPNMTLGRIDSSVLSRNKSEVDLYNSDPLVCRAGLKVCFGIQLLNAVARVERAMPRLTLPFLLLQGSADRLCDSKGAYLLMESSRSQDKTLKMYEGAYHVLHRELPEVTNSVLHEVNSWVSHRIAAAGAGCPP
The test can be described thus: In vitro competitive activity-based protein profiling (mouse), MAGL gel band. It counts as biochemical. The conditions noted are these: for IC50: mouse; for inhibition at 1 µM: read-out: MAGL % inh. 1 μM. The method in brief: (§1)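 Gel-based competitive ABPP: proteome 1.0 mg/mL, inhibitor 30 min 37 °C, then FP-Rh or HT-01 probe (stock 50 μM) 30 min 37 °C; SDS quench, SDS-PAGE, in-gel fluorescence of the enzyme band quantified.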

Test [2] has as its target T2, FAAH (Mus musculus, UniProt O08914).
T2 construct: Proteomes (mouse brain membrane fraction or cell lysates); from tissue; host or cells: mouse brain membrane fraction (or cell lysates)
T2 sequence (O08914 1-579): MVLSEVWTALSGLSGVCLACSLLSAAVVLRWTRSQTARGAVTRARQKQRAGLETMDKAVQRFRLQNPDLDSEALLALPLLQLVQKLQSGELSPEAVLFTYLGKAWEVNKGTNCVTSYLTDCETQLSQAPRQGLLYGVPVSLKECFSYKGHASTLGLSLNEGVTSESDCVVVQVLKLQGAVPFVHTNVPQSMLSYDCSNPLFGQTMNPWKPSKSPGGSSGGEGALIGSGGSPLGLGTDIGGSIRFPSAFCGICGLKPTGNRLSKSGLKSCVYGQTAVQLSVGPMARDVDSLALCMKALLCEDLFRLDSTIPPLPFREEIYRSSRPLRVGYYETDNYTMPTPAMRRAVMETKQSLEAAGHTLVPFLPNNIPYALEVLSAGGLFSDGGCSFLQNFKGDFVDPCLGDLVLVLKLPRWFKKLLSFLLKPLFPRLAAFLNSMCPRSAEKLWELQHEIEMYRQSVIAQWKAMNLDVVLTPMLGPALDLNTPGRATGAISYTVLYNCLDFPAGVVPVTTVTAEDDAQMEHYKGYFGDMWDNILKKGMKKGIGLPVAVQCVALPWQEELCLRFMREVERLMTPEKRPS
As to the kind of experiment: In vitro competitive activity-based protein profiling (mouse), FAAH gel band. Type of test: biochemical. The conditions noted are these: for IC50: mouse; for inhibition at 1 µM: read-out: FAAH % inh. 1 μM. The method in brief:
as §1

Test [3] addresses T1, MAGL. As to the kind of experiment: Mouse brain proteomes from inhibitor treated mice (oral gavage, sacrificed 4 h after administration). The conditions noted are these: read-out: MAGL % inh. 5 mg/kg. It counts as in vivo. Here is the method: Compounds are tested to assess their MAGL and other serine hydrolase activity using the following in vitro and in vivo assays.
Preparation of Mouse Brain Proteomes from Inhibitor Treated Mice.
Inhibitors were administered to wild-type C57Bl/6J by oral gavage in a vehicle of polyethylene glycol. Each animal was sacrificed 4 h following administration and brain proteomes were prepared and analyzed according to previously established methods (See Niphakis, M. J., et al. (2011) ACS Chem. Neurosci. and Long, J. Z., et al. Nat. Chem. Biol. 5:37-44)

For `CC(=O)Nc1ccn(C(=O)N2CCN(Cc3ccc(C(F)(F)F)cc3N3CCCC3)CC2)n1` [Example 1, N-(1-(4-(2-(pyrrolidin-1-yl)-4-(trifluoromethyl)benzyl)piperazine-1-carbonyl)-1H-pyrazol-3-yl)acetamide], in test [1], the IC50 is at most 0.1 µM and the inhibition at 1 µM was at least 75%. For the same compound, in test [2], the IC50 is 1 to 10 µM and the inhibition at 1 µM was in the range of 0 to 25%. Besides, the inhibition at 5 mg/kg in test [3] was at least 75%.
In the case of `CC(=O)Nc1ccn(C(=O)N2CCN(Cc3ccc(C(F)(F)F)cc3N3CCOCC3)CC2)n1` [Example 3, N-(1-(4-(2-morpholino-4-(trifluoromethyl)benzyl)piperazine-1-carbonyl)-1H-pyrazol-3-yl)acetamide], in test [1], the IC50 is at most 0.1 µM and the inhibition at 1 µM is at least 75%. In addition, in test [2], the IC50 was in the range of 1 to 10 µM and the inhibition at 1 µM is 0 to 25%. For the same compound, the inhibition at 5 mg/kg in test [3] fell in the range of 50 to 75%.
For `CC(=O)Nc1ccn(C(=O)N2CCN(Cc3ccc(C(F)(F)F)cc3N3CCC(F)CC3)CC2)n1` [Example 4, N-(1-(4-(2-(4-fluoropiperidin-1-yl)-4-(trifluoromethyl)benzyl)piperazine-1-carbonyl)-1H-pyrazol-3-yl)acetamide], in test [1], the IC50 was at most 0.1 µM and the inhibition at 1 µM was at least 75%. In test [2], the IC50 is 1 to 10 µM and the inhibition at 1 µM is 0 to 25%. Moreover, in test [3], the inhibition at 5 mg/kg was at least 75%.
For the compound `CC(=O)Nc1ccn(C(=O)N2CCN(Cc3ccc(Cl)cc3N3CCCC3)CC2)n1` [Example 5, N-(1-(4-(4-chloro-2-(pyrrolidin-1-yl)benzyl)piperazine-1-carbonyl)-1H-pyrazol-3-yl)acetamide], in test [1], the IC50 is at most 0.1 µM and the inhibition at 1 µM is at least 75%. Further, in test [2], the IC50 was 1 to 10 µM and the inhibition at 1 µM was 0 to 25%. The inhibition at 5 mg/kg in test [3] is at least 75%.
Take `CC(=O)Nc1ccn(C(=O)N2CCN(Cc3ccc(Cl)cc3N3CCOCC3)CC2)n1` [Example 6, N-(1-(4-(4-chloro-2-morpholinobenzyl)piperazine-1-carbonyl)-1H-pyrazol-3-yl)acetamide]: the IC50 in test [1] is at most 0.1 µM; in test [2], 1 to 10 µM. In addition, the values for the inhibition at 1 µM in test [1] and in test [2] were at least 75% and 0 to 25%, respectively. Further, in test [3], the inhibition at 5 mg/kg was 25 to 50%.
In the same order, the values of `CC(=O)Nc1ccn(C(=O)N2CCC3(CCCN3Cc3ccc(Cl)cc3N3CCC4(CCOCC4)C3)CC2)n1` [Example 9, N-(1-(1-(4-chloro-2-(8-oxa-2-azaspiro[4.5]decan-2-yl)benzyl)-1,8-diazaspiro[4.5]decane-8-carbonyl)-1H-pyrazol-3-yl)acetamide] are at most 0.1 µM, 1 to 10 µM, at least 75%, 0 to 25% and 0 to 25%.
With `CS(=O)(=O)Nc1ccn(C(=O)N2CCN(Cc3cccc(C(F)(F)F)c3N3CCC(F)CC3)CC2)n1` [Example 273, N-(1-(4-(2-(4-fluoropiperidin-1-yl)-3-(trifluoromethyl)benzyl)piperazine-1-carbonyl)-1H-pyrazol-3-yl) methanesulfonamide], the values for the inhibition at 1 µM in test [1] and in test [2] were at least 75% and 0 to 25%, respectively.
Turning to `CC(=O)Nc1ccn(C(=O)N2CCN(Cc3ccc(C(F)(F)F)cc3N3CCC(C(N)=O)CC3)CC2)n1` [Example 274, 1-(2-((4-(3-acetamido-1H-pyrazole-1-carbonyl)piperazin-1-yl)methyl)-5-(trifluoromethyl)phenyl)piperidine-4-carboxamide], the inhibition at 1 µM in test [1] was at least 75%; in test [2], 0 to 25%.
In the case of `CC(=O)Nc1ccn(C(=O)N2CCN(Cc3ccc(C(F)(F)F)cc3N3CCC(NC(C)=O)CC3)CC2)n1` [Example 275, N-(1-(2-((4-(3-acetamido-1H-pyrazole-1-carbonyl)piperazin-1-yl)methyl)-5-(trifluoromethyl)phenyl)piperidin-4-yl)acetamide], the results for the inhibition at 1 µM in test [1] and in test [2] were at least 75% and 0 to 25%, respectively.
For `CC(=O)Nc1ccn(C(=O)N2CCN(Cc3ccc(C(F)(F)F)cc3N3CCC(O)CC3)CC2)n1` [Example 276, N-(1-(4-(2-(4-hydroxypiperidin-1-yl)-4-(trifluoromethyl)benzyl)piperazine-1-carbonyl)-1H-pyrazol-3-yl)acetamide] the same measures were at least 75% and 0 to 25%.
Take `CC(=O)Nc1ccn(C(=O)N2CCN(Cc3ccc(C(F)(F)F)cc3N3CCN(CC(=O)O)CC3)CC2)n1` [Example 277, 2-(4-(2-((4-(3-acetamido-1H-pyrazole-1-carbonyl)piperazin-1-yl)methyl)-5-(trifluoromethyl)phenyl)piperazin-1-yl)acetic acid]: the inhibition at 1 µM in test [1] is at least 75%; in test [2], 0 to 25%.
Take `CS(=O)(=O)Nc1ccn(C(=O)N2CCN(Cc3ccc(C(F)(F)F)c(N4CCN5CCC[C@@H]5C4)c3)CC2)n1` [Example 278, (R)-N-(1-(4-(3-(hexahydropyrrolo[1,2-a]pyrazin-2(1H)-yl)-4-(trifluoromethyl)benzyl)piperazine-1-carbonyl)-1H-pyrazol-3-yl) methanesulfonamide]: the inhibition at 1 µM in test [1] was at least 75%; in test [2], 0 to 25%.
In the same order, the values of `CC(=O)NC1CCN(c2cc(CN3CCN(C(=O)n4ccc(NS(C)(=O)=O)n4)CC3)ccc2C(F)(F)F)CC1` [Example 279, N-(1-(5-((4-(3-(methylsulfonamido)-1H-pyrazole-1-carbonyl)piperazin-1-yl)methyl)-2-(trifluoromethyl)phenyl)piperidin-4-yl)acetamide] are at least 75% and 0 to 25%.
`CC(C)(O)C1CCN(c2cc(CN3CCN(C(=O)n4ccc(NS(C)(=O)=O)n4)CC3)ccc2C(F)(F)F)CC1` [Example 280, N-(1-(4-(3-(4-(2-hydroxypropan-2-yl)piperidin-1-yl)-4-(trifluoromethyl)benzyl)piperazine-1-carbonyl)-1H-pyrazol-3-yl) methanesulfonamide]: the inhibition at 1 µM in test [1] is at least 75%; in test [2], 0 to 25%.
In the case of `CS(=O)(=O)Nc1ccn(C(=O)N2CCN(Cc3ccc(C(F)(F)F)c(N4CCN(CC(=O)O)CC4)c3)CC2)n1` [Example 281, 2-(4-(5-((4-(3-(methylsulfonamido)-1H-pyrazole-1-carbonyl)piperazin-1-yl)methyl)-2-(trifluoromethyl)phenyl)piperazin-1-yl)acetic acid], the inhibition at 1 µM in test [1] and in test [2] was 0 to 25% in each case.
Turning to `CS(=O)(=O)Nc1ccn(C(=O)N2CCN(Cc3ccc(Cl)c(N4CCN(S(C)(=O)=O)CC4)c3)CC2)n1` [Example 282, N-(1-(4-(4-chloro-3-(4-(methylsulfonyl)piperazin-1-yl)benzyl)piperazine-1-carbonyl)-1H-pyrazol-3-yl) methanesulfonamide], the figures for the inhibition at 1 µM in test [1] and in test [2] were at least 75% and 0 to 25%, respectively.
For the compound `CS(=O)(=O)Nc1ccn(C(=O)N2CCN(Cc3ccc(Cl)c(-c4cnccn4)c3)CC2)n1` [Example 283, N-(1-(4-(4-chloro-3-(pyrazin-2-yl)benzyl)piperazine-1-carbonyl)-1H-pyrazol-3-yl) methanesulfonamide], the inhibition at 1 µM in test [1] is at least 75%; in test [2] it was 0 to 25%.
As for `CC(=O)N1CCN(c2cc(CN3CCN(C(=O)n4ccc(NS(C)(=O)=O)n4)CC3)ccc2Cl)CC1` [Example 284, N-(1-(4-(3-(4-acetylpiperazin-1-yl)-4-chlorobenzyl)piperazine-1-carbonyl)-1H-pyrazol-3-yl) methanesulfonamide], in test [1], the IC50 is 0.1 to 1 µM and the inhibition at 1 µM is at least 75%. In test [2], the IC50 lay within 1 to 10 µM and the inhibition at 1 µM fell in the range of 0 to 25%.

For orientation: IC50 means the concentration at which inhibition is half-maximal. A higher IC50 goes with a need for much substance.
